Measurements as given in ChEMBL document CHEMBL1201862, “PubChem BioAssay data set” (2004).
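How tested: cells in 96-well plates exposed to compound for 48 hours at five concentrations. Abbreviation: GI50, concentration required for 50% inhibition of growth.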 Active and inactive are the calls of the source. Rule as the data show it: active = GI50 up to about 1.1 µM and inactive = higher.

Key:
Experiment in all cases: NCI-60 cell line screen, 48 h
TK-10 = system: TK-10
NCI/ADR-RES = system: NCI/ADR-RES
OVCAR-5 = system: OVCAR-5
ACHN = system: ACHN
LOX IMVI = system: LOX IMVI
786-0 = system: 786-0
NCI-H522 = system: NCI-H522
UO-31 = system: UO-31
NCI-H23 = system: NCI-H23
HOP-62 = system: HOP-62
MCF7 = system: MCF7
KM12 = system: KM12
T47D = system: T47D
Hs-578T = system: Hs-578T
SK-OV-3 = system: SK-OV-3
BT-549 = system: BT-549
SK-MEL-28 = system: SK-MEL-28
MDA-N = system: MDA-N
A549 = system: A549

Compound | GI50 (TK-10) | GI50 (NCI/ADR-RES) | GI50 (OVCAR-5) | GI50 (ACHN) | GI50 (LOX IMVI) | GI50 (786-0) | GI50 (NCI-H522) | GI50 (UO-31) | GI50 (NCI-H23) | GI50 (HOP-62) | GI50 (MCF7) | GI50 (KM12) | GI50 (T47D) | GI50 (Hs-578T) | GI50 (SK-OV-3) | GI50 (BT-549) | GI50 (SK-MEL-28) | GI50 (MDA-N) | GI50 (A549)
CCOc1ccccc1/N=N/C1C(=O)N(C(=O)CC(=O)Nc2ccccc2C)N=C1C (centres undefined) | 52.4 µM (inactive) | 54.6 µM (inactive) | > 100 µM (inactive) | > 100 µM (inactive) | > 100 µM (inactive) | 46.9 µM (inactive) | 61.2 µM (inactive) | 27.2 µM (inactive) | 59.7 µM (inactive) | 19.9 µM (inactive) | > 100 µM (inactive) | > 100 µM (inactive) | 51.9 µM (inactive) | 6.55 µM (inactive) | 19.7 µM (inactive) | 65.5 µM (inactive) | > 100 µM (inactive) | > 100 µM (inactive) | 89.7 µM (inactive)
Cc1ccc(C)c2c1CC(Cc1ccccc1C(=O)O)C2=O (centres undefined) | > 100 µM (inactive) | > 100 µM (inactive) | > 100 µM (inactive) | > 100 µM (inactive) | > 100 µM (inactive) | > 100 µM (inactive) | > 100 µM (inactive) | > 100 µM (inactive) | > 100 µM (inactive) | > 100 µM (inactive) | > 100 µM (inactive) | > 100 µM (inactive) | > 100 µM (inactive) | > 100 µM (inactive) | > 100 µM (inactive) | > 100 µM (inactive) | > 100 µM (inactive) | > 100 µM (inactive) | > 100 µM (inactive)
Cc1ccc(C(=O)Nc2ccc(CP(=O)(O)O)cc2CP(=O)(O)O)cc1N | > 100 µM (inactive) | > 100 µM (inactive) | > 100 µM (inactive) | > 100 µM (inactive) | > 100 µM (inactive) | > 100 µM (inactive) | > 100 µM (inactive) | > 100 µM (inactive) | > 100 µM (inactive) | > 100 µM (inactive) | > 100 µM (inactive) | > 100 µM (inactive) | > 100 µM (inactive) | > 100 µM (inactive) | > 100 µM (inactive) | > 100 µM (inactive) | > 100 µM (inactive) | > 100 µM (inactive) | > 100 µM (inactive)
O=C1NC(N2CCCC(CO)C2)=N/C1=C\c1ccc(Cl)cc1 (centres undefined) | > 100 µM (inactive) | > 100 µM (inactive) | > 100 µM (inactive) | > 100 µM (inactive) | 87.5 µM (inactive) | > 100 µM (inactive) | > 100 µM (inactive) | 75 µM (inactive) | > 100 µM (inactive) | > 100 µM (inactive) | > 100 µM (inactive) | 63.7 µM (inactive) | 75.9 µM (inactive) | > 100 µM (inactive) | > 100 µM (inactive) | > 100 µM (inactive) | > 100 µM (inactive) | > 100 µM (inactive) | > 100 µM (inactive)
CCOC(=O)/C=C(\C(=O)OCC)n1cc(Cl)c(=O)n(CC(=O)OCC)c1=O | 1.89 µM (inactive) | 27.6 µM (inactive) | 18.1 µM (inactive) | 1.63 µM (inactive) | 4.99 µM (inactive) | 1.73 µM (inactive) | 0.78 µM (active) | 1.87 µM (inactive) | 14.7 µM (inactive) | 18 µM (inactive) | 2.62 µM (inactive) | 18.2 µM (inactive) | 1.66 µM (inactive) | 23.7 µM (inactive) | 19.5 µM (inactive) | 18 µM (inactive) | 16.7 µM (inactive) | 11.3 µM (inactive) | 19.9 µM (inactive)
C[N+]1(CCC(=O)c2ccccc2)CCC2CCC(C2)C1 (centres undefined) | > 100 µM (inactive) | > 100 µM (inactive) | > 100 µM (inactive) | > 100 µM (inactive) | > 100 µM (inactive) | > 100 µM (inactive) | > 100 µM (inactive) | > 100 µM (inactive) | > 100 µM (inactive) | > 100 µM (inactive) | > 100 µM (inactive) | > 100 µM (inactive) | > 100 µM (inactive) | > 100 µM (inactive) | > 100 µM (inactive) | > 100 µM (inactive) | > 100 µM (inactive) | > 100 µM (inactive) | > 100 µM (inactive)
